Holding throughout (experiment): DTP human tumour cell line panel, 48 h
Experiment [1] concerns SNB-19 CNS.
Experiment [2] relates to OVCAR-5 ovarian.
In experiment [3] the test system is U251 CNS.
For experiment [4], the system named is UACC-257 melanoma.
Experiment [5] has as its system OVCAR-8 ovarian.
Experiment [6] has as its system HCC-2998 colon.
Experiment [7] deals with SR leukemia.
Experiment [8] relates to T-47D breast.
In experiment [9] the test system is COLO 205 colon.
The test system of experiment [10] is MOLT-4 leukemia.

Molecules are shown by their SMILES. Values joined by “and” are separate entries in the source; they are usually repeats but may differ in a detail not shown here. Identical values can stand only once.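 Interpolation was linear, between the two tested concentrations surrounding the appropriate level; five concentrations were tested over 48 hours in 96-well plates. Abbreviation: GI50, concentration required for 50% inhibition of growth. The concentration for full growth arrest is given as TGI.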

Consider `Clc1ccccc1[C@@H]1C[C@@H]2Cc3cc(Br)c4ccccc4c3N1O2`, for which the GI50 in [1] was 8.11 µM; in experiment [2], 16.9 µM; in experiment [3], 3650 nM; in experiment [4], 3770 nM; in experiment [5], 5.45 µM; in [6], 4.19 µM. Further, the GI50 in experiment [7] is 3330 nM; in [8], 4.26 µM; in experiment [9], 3950 nM; in experiment [10], 6940 nM. Also, the TGI in [1], in experiment [2], in experiment [3], in experiment [4], in [5] and in [6] was more than 100 µM throughout. Also, the TGI in [7] is more than 100 µM; in experiment [8], more than 100 µM; in [9], 74 µM; in [10], more than 100 µM.
On to `CN(C)c1ccc(C(=N)c2ccc(N(C)C)cc2)cc1`, for which the GI50 in experiment [1] is 4.38 µM and 16 µM; in experiment [2], 7.57 µM and 7.89 µM; in experiment [3], 3540 nM and 3110 nM; in experiment [4], 6560 nM and 4760 nM; in experiment [5], 3.79 µM and 3.55 µM; in experiment [6], 6.39 µM and 7.12 µM. Moreover, the GI50 in experiment [7] is 736 nM; in [8], 5.51 µM and 3.42 µM; in [9], 2490 nM and 2160 nM; in experiment [10], 3660 nM. In addition, the TGI in experiment [1] is more than 100 µM; in [2], more than 100 µM; in experiment [3], 18.9 µM and 17.7 µM; in experiment [4], 30.8 µM and 32.6 µM; in experiment [5], 19.1 µM and 28.1 µM; in [6], 33.6 µM and 32.6 µM. In addition, the TGI in experiment [7] was 5.3 µM; in experiment [8] it was 44.8 µM and 29.2 µM; in experiment [9], 10.7 µM and 8.83 µM; in experiment [10] it was 26 µM.
As to `C[C@]12CC[C@@H]3c4ccc(O)cc4CC[C@H]3[C@@H]1CC[C@@H]2NS(=O)(=O)c1cccc(Cl)c1`, the GI50 in experiment [1] is 3.87 µM; in experiment [2], 2.59 µM; in experiment [3] it was 2260 nM; in experiment [4], 2900 nM; in experiment [5] it was 3.27 µM; in [6], 3.45 µM. Moreover, the GI50 was 2150 nM in [7], 3.49 µM in [8], 1810 nM in [9] and 2140 nM in experiment [10]. The TGI worked out at 14.4 µM in [1]; 8.54 µM in experiment [2]; 5.48 µM in experiment [3]; 12.3 µM in experiment [4]; 13.3 µM in [5]; 10.4 µM in experiment [6]. Besides, the TGI came to 6.6 µM in [7], 11.3 µM in experiment [8], 3.31 µM in experiment [9] and 8.97 µM in [10].
For `C=C(C)[C@@H]1CC[C@]2(COCCCNCCCN)CC[C@]3(C)[C@H](CC[C@@H]4[C@@]5(C)CC[C@H](OCCCN)C(C)(C)[C@@H]5CC[C@]43C)[C@@H]12`, the GI50 in [1] is 0.913 µM; in [2], 0.918 µM; in experiment [3], 836 nM; in [4] it was 914 nM; in experiment [5], 0.903 µM; in experiment [6], 0.96 µM. Besides, the GI50 in experiment [7] is 577 nM; in experiment [8] it was 0.858 µM; in experiment [9], 778 nM; in experiment [10], 1050 nM. For the same compound, the TGI in experiment [1] stood at 1.66 µM; in [2], 1.67 µM; in [3] it was 1.54 µM; in [4], 1.75 µM; in [5], 1.72 µM; in [6] it was 1.81 µM. Besides, the TGI came out at 1.94 µM in [7], 1.71 µM in experiment [8], 1.56 µM in [9] and 2.58 µM in experiment [10].
On to `O=C1NCN(c2ccccc2)C12CCN(CCCC(c1ccc(F)cc1)c1ccc(F)cc1)CC2`, for which the GI50 in experiment [1] was 2.99 µM; in [2], 3.76 µM; in [3], 1550 nM; in experiment [4] it was 1590 nM; in experiment [5], 1.6 µM; in experiment [6], 2.24 µM. Besides, the GI50 in experiment [7] is 704 nM; in experiment [8] it was 2.43 µM; in [9], 1720 nM; in [10], 2310 nM. For the same compound, the TGI in experiment [1] worked out at 12.8 µM; in experiment [2], 16.4 µM; in experiment [3], 2.91 µM; in [4], 3.15 µM; in [5], 3.05 µM; in experiment [6], 4.16 µM. Also, the TGI came out at 3.74 µM in experiment [7], 6.49 µM in experiment [8], 3.24 µM in [9] and 5.99 µM in experiment [10].
Regarding `Cc1cc2c(cc1C)[n+](=O)c(C(=O)/C=C/c1ccc3c(c1)OCO3)c(C)n2[O-]`, the TGI was 79.3 µM in experiment [1]; more than 100 µM in experiment [2]; 62.7 µM in experiment [3]; more than 100 µM in [4]; more than 100 µM in [5]; more than 100 µM in experiment [6]. The TGI in [7], in [8], in [9] and in experiment [10] was more than 100 µM in each case.
`COc1cccc(-n2ncc3c(N/N=C/c4ccc(C)cc4)ncnc32)c1`: the GI50 in experiment [1] was more than 25 µM; in experiment [2], more than 25 µM; in [3], more than 25000 nM; in [4] it was more than 21700 nM; in experiment [5] it was more than 25 µM; in experiment [6], more than 25 µM. The GI50 in experiment [7] was more than 14400 nM; in experiment [8], more than 25 µM; in experiment [9] it was 9560 nM; in [10] it was more than 25000 nM. Besides, the TGI in experiment [1], in [2], in [3], in experiment [4], in experiment [5] and in [6] was more than 25 µM each time. The TGI in [7], in experiment [8], in experiment [9] and in experiment [10] was more than 25 µM in each case.
With `CC/C=C\C[C@H](O)C/C=C1/C(=O)C=C[C@@H]1C/C=C\CCCC(=O)OC(C)C`, the GI50 in experiment [1] is 3.3 µM; in experiment [2], 3.07 µM; in experiment [3], 480 nM; in experiment [4] it was 2160 nM; in [5], 2.8 µM; in experiment [6], 1.87 µM. Further, the GI50 in [7] was 896 nM; in [8] it was 1.37 µM; in experiment [9] it was 1790 nM; in experiment [10], 1240 nM. Besides, the TGI in experiment [1] stood at 12.8 µM; in [2], 8.41 µM; in experiment [3], 1.74 µM; in [4], 5.49 µM; in [5], 8.38 µM; in experiment [6], 3.38 µM. The TGI in experiment [7] amounted to 5.01 µM; in [8], 7 µM; in experiment [9], 3.87 µM; in experiment [10] it was 6.36 µM.
On to `O=C1Nc2ccccc2/C1=C\c1cccc(/C=C2/C(=O)Nc3ccccc32)n1`, for which the GI50 in [1] was 0.526 µM; in [2] it was 0.888 µM; in [3], 160 nM; in [4], 241 nM; in experiment [5], 0.3 µM; in experiment [6], 0.615 µM. The GI50 was 231 nM in [7], 1.13 µM in [8], 356 nM in experiment [9] and 509 nM in [10]. The TGI in [1] was determined as 1.98 µM; in experiment [2] it was 2.4 µM; in experiment [3], 0.346 µM; in experiment [4], 0.633 µM; in experiment [5], 1.13 µM; in [6], 1.77 µM. Moreover, the TGI turned out to be 4.88 µM in experiment [7], 3.4 µM in [8] and 1.57 µM in experiment [9].

The values above are taken from PubChem BioAssay (NCI).
